Laboratory results published in patent US20250241974A1, “COMPOSITIONS AND METHODS FOR WOUND HEALING” (University of Maine System Board of Trustees, priority 2024, published 2025).

Test system: excision wounds
Assay: Wound healing assay with CNF hydrogel formulation (Example IV)
Format: in vivo
Settings: citric acid as cross-linking agent

For `O=C(O)CC(O)(CC(=O)O)C(=O)O` [citric acid], the “effect on all parameters studied” value was “does not have any effect”.
